Measurements reported in the NIST ThermoML archive (doi:10.1021/je060271a).

Details: 283.15 K, Liquid, Vibrating tube method

CCCCCC(=O)OCC(COC(=O)CCCCC)(COC(=O)CCCCC)COC(=O)CCCCC [pentaerythritol tetrahexanoate]
Details	mass density [kg/m3]
21616 kPa	1016.3
21632 kPa	1016.3
21648 kPa	1016.3
21667 kPa	1016.2
21684 kPa	1016.3
21699 kPa	1016.3
21715 kPa	1016.3
21734 kPa	1016.4
21766 kPa	1016.3
21786 kPa	1016.3
21802 kPa	1016.5
21821 kPa	1016.3
21837 kPa	1016.4
21853 kPa	1016.4
21870 kPa	1016.3
21887 kPa	1016.3
21904 kPa	1016.4
21923 kPa	1016.5
21940 kPa	1016.5
21959 kPa	1016.4
21976 kPa	1016.5
21992 kPa	1016.5
22008 kPa	1016.5
22028 kPa	1016.5
22044 kPa	1016.5
22061 kPa	1016.5
22081 kPa	1016.5
22098 kPa	1016.4
22117 kPa	1016.6
22134 kPa	1016.7
22150 kPa	1016.5
22170 kPa	1016.6
22187 kPa	1016.6
22204 kPa	1016.7
22224 kPa	1016.5
22241 kPa	1016.6
22261 kPa	1016.5
22278 kPa	1016.5
22295 kPa	1016.5
22316 kPa	1016.6
22333 kPa	1016.6
22350 kPa	1016.7
22367 kPa	1016.7
22386 kPa	1016.7
22402 kPa	1016.7
22421 kPa	1016.6
22436 kPa	1016.7
22452 kPa	1016.7
22468 kPa	1016.6
22487 kPa	1016.8
22503 kPa	1016.7
22522 kPa	1016.7
22538 kPa	1016.8
22555 kPa	1016.8
22574 kPa	1016.7
22590 kPa	1016.8
22607 kPa	1016.7
22623 kPa	1016.8
22643 kPa	1016.7
22660 kPa	1016.7
22676 kPa	1016.8
22695 kPa	1016.9
22710 kPa	1016.9
22728 kPa	1016.8
22744 kPa	1016.8
22760 kPa	1016.9
22779 kPa	1016.9
22795 kPa	1017
22810 kPa	1016.8
22826 kPa	1017
22845 kPa	1017
22861 kPa	1016.8
22880 kPa	1017
